Experiments:
MDA-MB-231 xenograft = test: MDA-MB-231 tumour model in nude mice; assay type: in vivo, BALB/c nude mice; conditions: PJ34-HCL combination study, harvested tumours
Experimental: (§1) Four‐week‐old BALB/c nude mice (Charles River Laboratories, Beijing, China) were subcutaneously inoculated in the breast fat pad with 1 × 10^7 MDA‐MB‐231 cells. The treatment group received 10 mg/kg PDBAG1, while the control group was administered an equal volume of PBS. For preliminary experiment of immunocompetent mice, 4‐week‐old BALB/c mice (Charles River Laboratories) were subcutaneously inoculated in the mammary fat pad with 1 × 10^6 4T1 cells. The treatment group received 10 mg/kg PDBAG1, while the control group was administered an equal volume of PBS. For evaluating the PJ34‐HCL combination, 28 randomly assigned BALB/c nude mice were divided into respective treatment groups as follows: Group 1 served as a negative control and received PBS; Group 2 received intraperitoneal injections of 10 mg/kg PDBAG1 every 3 days; Group 3 received 1 mg/kg PJ34‐HCL every 3 days; Group 4 was treated with a combination of 10 mg/kg PDBAG1 and 1 mg/kg PJ34‐HCL every 3 days. Both PDBAG1 and PJ34‐HCL were dissolved in specific concentrations of normal saline and administered intraperitoneally. All mice were sacrificed 4 weeks after inoculation, and their subcutaneous xenografts were resected and weighed. Subsequently, formalin‐fixed subcutaneous tumours were processed into paraffin‐embedded sections for routine IHC analysis. […]

MDA-MB-231 cells = test: CCK-8 assay, MDA-MB-231; assay type: cell-based, human; conditions: CCK-8, MDA-MB-231 and MDA-MB-468, co-treated 72 h / 24 h
Experimental: The cells were cultured at the corresponding cell densities in 96‐well plates. Following treatment with specific concentrations of reagents for designated durations, the CCK8 reagent was added to each well at a final ratio of 10% (v/v). After incubation for 2 h, the absorbance at 450 nm was measured using a microplate reader (H4, Synergy). For the Edu assay, logarithmic growth phase cells were inoculated into 96‐well plates at a density of 3 × 10^4 cells/mL. Subsequently, they were treated with specific concentrations of reagents for designated durations and then replaced with EdU medium containing a final concentration of 10 µmol/L. The cells were incubated for an additional period of 2 h. Following PBS washing and fixation with 4% paraformaldehyde for 30 min, Apollo staining reaction solution was added according to instructions and allowed to react for another 30 min. This was followed by addition of DAPI staining reaction solution for a duration of 10 min before washing again with PBS. Three randomly selected fields of vision from each group in each well were calculated and photographed under a fluorescence microscope. […] Three random fields of view were selected to quantify the number of cells that traversed through the microporous membrane.

[1] = tested on: HEK-293T and MCF-10A cell lines; conditions: 30 μM, 24 hours
[2] = tested on: MDA-MB-231 and MDA-MB-468 cells; conditions: FITC-labelled PDBAG1 50 µM, 6 h, fluorescence microscopy
Experimental: The cells were seeded in a 24‐well plate, and FITC‐labelled PDBAG1 was added to the cell culture medium at a final concentration of 50 µM. After three washes with PBS, performed 6 h post peptide addition, the samples were fixed with 4% paraformaldehyde for 15 min and stained with DAPI (5 µg/mL) for 5 min. Following PBS washing, fluorescence microscopy was employed for observation.

[3] = In vivo toxicity: body weight and HE staining of spleen, liver, kidney; conditions: PDBAG1 10 mg/kg, PJ34-HCL 1 mg/kg i.p. every 3 days
Experimental: as §1

C1QBP = conditions: cited from earlier work
Text: C1QBP, targeted by PDBAG1, predominantly localises in the mitochondrial matrix and plays a crucial role in mitochondrial protein translation and function.[3] It represents a promising therapeutic target for various human cancers, including breast cancer. We observed significant overexpression of C1QBP in the TNBC subtype, which correlated with worse DFS. Based on our findings, we believe PDBAG1 primarily affects tumour cells, with minimal toxicity to normal cells. Although PDBAG1's precursor peptide is derived from normal adipose tissue, its impact on adipose metabolism is likely less pronounc ...

human C1QBP 74–282 = target: T1, human C1QBP 74–282 (human, UniProt Q07021 74-282); test: ITC; PDBAG1 (500 µM) in the syringe into C1QBP 74–282 (17.0 µM) in the cell, 25°C, MicroCal VP ITC, no Zn2+, one set-of-sites model; buffer by the methods 20 mM HEPES pH 7.5, 600 mM NaCl, 1 mM EDTA, 1 mM EGTA, 5% glycerol, by the legend 20 mM potassium phosphate, 100 mM NaCl, pH 7.4; conditions: both partners purified
T1 construct: also called p32; source: vector a gift from Dr Adrian R. Krainer
T1 sequence (looked up): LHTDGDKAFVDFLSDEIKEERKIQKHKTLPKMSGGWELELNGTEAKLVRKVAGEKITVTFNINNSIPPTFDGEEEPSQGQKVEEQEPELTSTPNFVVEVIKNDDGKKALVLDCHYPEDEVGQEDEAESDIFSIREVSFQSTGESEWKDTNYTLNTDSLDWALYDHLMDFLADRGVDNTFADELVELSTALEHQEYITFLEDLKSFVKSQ

With `CN(C)CC(=O)Nc1ccc2[nH]c(=O)c3ccccc3c2c1.Cl` [PJ34‐HCL] the “C1QBP protein in tumour tissue (IHC, western blot)” value (MDA-MB-231 xenograft) was “no substantial changes” and the “Cell viability with PARP inhibitor, alone or combined with PDBAG1” value (MDA-MB-231 cells) was “exhibited significant effects”.

With “Ac-GRKKRRQRRRPPQQASKKVCIVGSGNWGSAIA-NH2 [PDBAG1]” the “Morphological alterations in non-tumour cells” value [1] was “no obvious in morphological alterations”, the Cell penetration [2] was “potent cell‐penetrating properties” and the “Body weight during or after drug administration” value [3] was “no significant differences”. The “HE staining of spleen, liver and kidney” value [3] was “no notable deviations from normal structure and morphology”.

For “CGKRK [tumour-specific vascular homing peptide]”, the “Binding to C1QBP” value (C1QBP) is listed as “can bind to cell surface‐associated C1QBP”.

In the case of CGNKRTRGC [LyP‐1], the “Binding to C1QBP” value (C1QBP) is given as “can bind to cell surface‐associated C1QBP”.

B1: PDBAG1 (peptide derived from breast adipose tissue GPD1) (peptide)
peptide: GRKKRRQRRRPPQQASKKVCIVGSGNWGSAIA
notes: stretch of glycerol-3-phosphate dehydrogenase 1 (GPD1), found by peptidomics in benign breast adipose tissue of patients; also called peptide PDBAG1; source: synthetic peptide (Fmoc solid-phase synthesis, Shanghai Science Peptide Biological Technology Co)
For B1, the Kd (human C1QBP 74–282) was 334 nM.

— PMC11695203, “A new peptide inhibitor of C1QBP exhibits potent anti‐tumour activity against triple negative breast cancer by impairing mitochondrial function and suppressing homologous recombination repair” (Clinical and Translational Medicine, 2025)
